Measurements reported in patent US20100130444A1, “COMPLEXES OF PROSTAGLANDIN DERIVATIVES AND MONOSUBSTITUTED, CHARGED BETA-CYCLODEXTRINS” (priority 2007, published 2010).
≈ marks a conversion by molar mass, not a printed value.

Tests used:
Assay type in all cases: physicochemical
[1] = Solubilization of latanoprost by a library of cyclodextrin derivatives (Example 1); conditions: ultra-pure water, room temperature
Experimental: A library of unsubstituted and monosubstituted cyclodextrins was screened to identify those cyclodextrin derivatives that have the highest capacity for solubilization of latanoprost. Complexation was carried out in ultra-pure water at a molar ratio of cyclodextrin derivative to latanoprost of 5:1, corresponding to concentrations of 115.58 mM and 23.12 mM for cyclodextrin derivative and latanoprost, respectively. Because of the known sensitivity of latanoprost to light, high temperature and oxidation, experiments were conducted in the dark and under a nitrogen atmosphere at room temperature. […] Non-covalent complexes formed contained the cyclodextrin derivative and latanoprost at a molar ratio of 5:1.

[2] = Solubility of prostaglandin derivatives in 50 mM cyclodextrin derivative or water (Example 2)
Excerpt: Solubility of Latanoprost, Bimatoprost And Travoprost in 50 Mm Mono-6-desoxy-6-diaminopropyl-β-cyclodextrin, Mono-6-desoxy-6-aminopropanol-β-cyclodextrin or Water

[3] = Time to reach maximal solubility of latanoprost in cyclodextrin solution (Example 3); conditions: 115 mM mono-6-desoxy-6-diaminopropyl-β-cyclodextrin, room temperature, dark, stirred
Experimental: The minimal time period required for reaching maximal solubility of the guest molecule, i.e., latanoprost, in a solution containing 115 mM mono-6-desoxy-6-diaminopropyl-β-cyclodextrin was determined. Subsequent to addition of latanoprost, the resulting suspension was ultrasonicated for 5 min and then stirred magnetically at room temperature and in the dark for a period of 48 hours. Aliquots were removed at 0, 1, 3, 6, 12, 24 and 48 hours. Each aliquot was filtered through a 0.45 um PVDF (Millipore/Whatman) membrane, and the filtrate was diluted for quantitative analysis of latanoprost by HPLC. […] Subsequent experiments were conducted after 24 hours of equilibration.

[4] = 30-day stability of latanoprost complexed with mono-6-desoxy-6-diaminopropyl-β-cyclodextrin, HPLC-ELSD (Example 6, Table 4); conditions: for Relative area of Latanoprost (%) after 30 days: ELSD
Experimental: Latanoprost-mono-6-desoxy-6-diaminopropyl-β-cyclodextrin complex was prepared essentially as described under the previous example. Complex was dissolved in water to yield solutions (pH 6.7) containing 15 mg/ml and 7.5 mg/ml of latanoprost, respectively, or in a standard, isotonic phosphate buffer (pH 6.7) at 50 μg/ml. A control solution of 50 μg/ml latanoprost in phosphate buffer was also prepared. One-milliliter amounts of these solutions were transferred to pre-scored hermetically thermo-sealed ampoules, and the sealed ampoules were incubated at room temperature, at 37° C. or at 60° C., in the presence or absence of natural light, for a total of 30 days. Aliquots were removed periodically and were analyzed by HPLC using either a UV diode array detector (at 210 nm) or an evaporative light scattering detector (ELSD). […] Such instability had been observed previously. Morgan (2001) J. Glaucoma 10, 401-405; Yusuke Sakai (2005) Int. J. Pharmaceutics 305, 176-179. International patent publication WO 2004/024164.

[5] = 30-day stability of latanoprost complexed with mono-6-desoxy-6-aminopropanol-β-cyclodextrin, quantitative HPLC (Example 6, Table 5); conditions: for Degradation products of latanoprost at 30 days (% of sum of drug and deg. prod.): uncomplexed aqueous solution
Experimental: Analogous experiments were carried out to estimate the stability of latanoprost-mono-6-desoxy-6-aminopropanol-β-cyclodextrin complex.

[6] = dark, nitrogen, cyclodextrin derivative 115.58 mM : latanoprost 23.12 mM (5:1), 'No addition' = latanoprost alone (Exp. S0)
[7] = 50 mM mono-6-desoxy-6-aminopropanol-β-cyclodextrin solution, aqueous with cosolvent or surfactant or cyclodextrin, read-out: Solubility In 50 mM Mono-6-desoxy-6-aminopropanol-β-cyclodextrin
[8] = 50 mM mono-6-desoxy-6-diaminopropyl-β-cyclodextrin solution, aqueous with cosolvent or surfactant or cyclodextrin, read-out: Solubility In 50 mM Mono-6-desoxy-6-diaminopropyl-β-cyclodextrin
[9] = water, read-out: Solubility In Water

Which results are given for “6^1-(3-amino-propylamino)-6^1-deoxycyclomaltoheptaose”?
Mass Ratio Cyclodextrin:Latanoprost in Complex [1]: 14; Molar Ratio Cyclodextrin:Latanoprost in Complex [1]: 5; Maximal Solubility of Latanoprost [1, 6]: 9570 µg/mL

With `CC(C)OC(=O)CCC/C=C\C[C@@H]1[C@@H](/C=C/[C@@H](O)COc2cccc(C(F)(F)F)c2)[C@H](O)C[C@@H]1O` [Travoprost, 16-(3-trifluoromethylphenoxy)-17,18,19,20-tetranor-PGF2α-isopropylester] as the compound, how does the solubility [2, 7] read?
Its solubility is 4950 ± 20 µg/mL (≈ 9.89 mM).

And the solubility [2, 8]?
Its solubility is 4940 ± 130 µg/mL (≈ 9.87 mM).

And the solubility [2, 9]?
Its solubility is 32 µg/mL (≈ 0.0639 mM).

Which “Mass Ratio Cyclodextrin:Latanoprost in Complex” value [1] does the source give for “6^1-(3-hydroxy-propylamino)-6^1-deoxycyclomaltoheptaose” here?
The value was 14.

What about the “Molar Ratio Cyclodextrin:Latanoprost in Complex” value [1] of the same compound?
Its value is 5.

What about the “Maximal Solubility of Latanoprost” value [1, 6] of the same compound?
The value was 10200 µg/mL.

What does the source list for `OC[C@H]1O[C@@H]2O[C@H]3[C@H](O)[C@@H](O)[C@@H](O[C@H]4[C@H](O)[C@@H](O)[C@@H](O[C@H]5[C@H](O)[C@@H](O)[C@@H](O[C@H]6[C@H](O)[C@@H](O)[C@@H](O[C@H]7[C@H](O)[C@@H](O)[C@@H](O[C@H]8[C@H](O)[C@@H](O)[C@@H](O[C@H]1[C@H](O)[C@H]2O)O[C@@H]8CO)O[C@@H]7CO)O[C@@H]6CO)O[C@@H]5CO)O[C@@H]4CO)O[C@@H]3CO` [β-Cyclodextrin, β-cyclomaltoheptaose]?
Mass Ratio Cyclodextrin:Latanoprost in Complex [1]: 59; Maximal Solubility of Latanoprost [1, 6]: 255 µg/mL

For “3^1,6^1-anhydrocyclomaltoheptaose [Monoanhydro-β-cyclodextrin]”, which “Mass Ratio Cyclodextrin:Latanoprost in Complex” value [1] is on record?
The value was 65.

What about the “Molar Ratio Cyclodextrin:Latanoprost in Complex” value [1] of the same compound?
The value was 25.

What about the “Maximal Solubility of Latanoprost” value [1, 6] of the same compound?
Its value is 2000 µg/mL.

For `CC(C)OC(=O)CCC/C=C\C[C@@H]1C(CC[C@@H](O)CCc2ccccc2)[C@H](O)C[C@@H]1O` (stereo partly drawn) [Latanoprost, 13,14-dihydro-17-phenyl-18,19,20-trinor-PGF2α-isopropylester], which solubility ([1]; dark, nitrogen, cyclodextrin derivative 115.58 mM : latanoprost 23.12 mM (5:1), 'No addition' = latanoprost alone (Exp. S0), read-out: Maximal Solubility of Latanoprost) is on record?
The solubility was 45 µg/mL (≈ 0.104 mM).

What about the solubility [2, 7] of the same compound?
The solubility was 5720 ± 80 µg/mL (≈ 13.2 mM).

And the solubility [2, 8]?
Its solubility is 5900 ± 60 µg/mL (≈ 13.6 mM).

And the solubility [2, 9]?
Its solubility is 89 µg/mL (≈ 0.206 mM).

And the “time at which solubility equilibrium was reached” value [3]?
Its value is “about 24 hours”.

What about the “Relative area of Latanoprost (%) after 30 days” value (“Relative area of Latanoprost (%)” for short) ([4]; 25 °C, Dark) of the same compound?
Its value is 85.9%.

And the “Relative area of Latanoprost (%)” value ([4]; 25 °C, Light, intact latanoprost as % of sum of latanoprost and degradation product)?
Its value is 76.9%.

What about the “Relative area of Latanoprost (%)” value ([4]; 37 °C, Dark) of the same compound?
The value was 100%.

And the “Relative area of Latanoprost (%)” value ([4]; 37 °C, Light)?
The value was 99.8%.

And the “Relative area of Latanoprost (%)” value ([4]; 60 °C, Dark)?
The value was 98.5%.

And the “Relative area of Latanoprost (%)” value ([4]; 60 °C, Light)?
Its value is 94.7%.

And the “stability over 30 days (in words)” value ([4]; room temperature, 37° C. or 60° C., light or dark, 30 days)?
Its value is “exhibited instability, in particular at 25 °C”.

And the “degradation at 25° C. (in words)” value ([5]; 25° C., 30 days)?
Its value is “abundant degradation”.

And the “Degradation products of latanoprost at 30 days (% of sum of drug and deg. prod.)” value ([5]; 25 °C, Dark)?
Its value is 93.4%.

What about the “Degradation products of latanoprost at 30 days (% of sum of drug and deg. prod.)” value ([5]; 25 °C, Light) of the same compound?
The value was 77.9%.

What about the “Degradation products of latanoprost at 30 days (% of sum of drug and deg. prod.)” value ([5]; 37 °C, Dark) of the same compound?
The value was 0%.

And the “Degradation products of latanoprost at 30 days (% of sum of drug and deg. prod.)” value ([5]; 37 °C, Light)?
Its value is 0%.

And the “Degradation products of latanoprost at 30 days (% of sum of drug and deg. prod.)” value ([5]; 60 °C, Dark)?
Its value is 0%.

What about the “Degradation products of latanoprost at 30 days (% of sum of drug and deg. prod.)” value ([5]; 60 °C, Light) of the same compound?
The value was 0%.

And the “latanoprost in aqueous solution at 30 days” value ([5]; uncomplexed, 25 °C, Dark)?
The value was 0.002 +/− 0.001 g/lt.

What about the “latanoprost in aqueous solution at 30 days” value ([5]; uncomplexed, 25 °C, Light) of the same compound?
The value was 0.006 +/− 0.004 g/lt.

And the “latanoprost in aqueous solution at 30 days” value ([5]; uncomplexed, 37 °C, Dark)?
Its value is 0.051 +/− 0.001 g/lt.

And the “latanoprost in aqueous solution at 30 days” value ([5]; uncomplexed, 37 °C, Light)?
Its value is 0.061 +/− 0.003 g/lt.

What about the “latanoprost in aqueous solution at 30 days” value ([5]; uncomplexed, 60 °C, Dark) of the same compound?
Its value is 0.058 +/− 0.002 g/lt.

What about the “latanoprost in aqueous solution at 30 days” value ([5]; uncomplexed, 60 °C, Light) of the same compound?
The value was 0.043 +/− 0.007 g/lt.

And the “latanoprost in aqueous solution at day 0” value ([5]; uncomplexed, phosphate-citrate buffer pH 5.0)?
The value was 0.063 +/− 0.003 g/lt.

Which “Mass Ratio Cyclodextrin:Latanoprost in Complex” value [1] does the source give for “6^1-(methylthioureido-6^1-deoxycyclomaltoheptaose” here?
Its value is 106.

What about the “Molar Ratio Cyclodextrin:Latanoprost in Complex” value [1] of the same compound?
The value was 38.

What about the “Maximal Solubility of Latanoprost” value [1, 6] of the same compound?
The value was 1300 µg/mL.

With `CCNC(=O)CCC/C=C\C[C@@H]1[C@@H](/C=C/[C@@H](O)CCc2ccccc2)[C@H](O)C[C@@H]1O` [Bimatoprost, 17-phenyl-18,19,20-trinor-PGF2α-ethylamide] as the compound, how does the solubility [2, 7] read?
The solubility was 10770 ± 50 µg/mL (≈ 25.9 mM).

And the solubility [2, 8]?
Its solubility is 10700 ± 670 µg/mL (≈ 25.7 mM).

And the solubility [2, 9]?
Its solubility is 3020 µg/mL (≈ 7.26 mM).
